The target of experiment [1] is T1, Rac GTPase-activating protein 1 (Homo sapiens, UniProt Q9H0H5).
T1 sequence (Q9H0H5 whole entry): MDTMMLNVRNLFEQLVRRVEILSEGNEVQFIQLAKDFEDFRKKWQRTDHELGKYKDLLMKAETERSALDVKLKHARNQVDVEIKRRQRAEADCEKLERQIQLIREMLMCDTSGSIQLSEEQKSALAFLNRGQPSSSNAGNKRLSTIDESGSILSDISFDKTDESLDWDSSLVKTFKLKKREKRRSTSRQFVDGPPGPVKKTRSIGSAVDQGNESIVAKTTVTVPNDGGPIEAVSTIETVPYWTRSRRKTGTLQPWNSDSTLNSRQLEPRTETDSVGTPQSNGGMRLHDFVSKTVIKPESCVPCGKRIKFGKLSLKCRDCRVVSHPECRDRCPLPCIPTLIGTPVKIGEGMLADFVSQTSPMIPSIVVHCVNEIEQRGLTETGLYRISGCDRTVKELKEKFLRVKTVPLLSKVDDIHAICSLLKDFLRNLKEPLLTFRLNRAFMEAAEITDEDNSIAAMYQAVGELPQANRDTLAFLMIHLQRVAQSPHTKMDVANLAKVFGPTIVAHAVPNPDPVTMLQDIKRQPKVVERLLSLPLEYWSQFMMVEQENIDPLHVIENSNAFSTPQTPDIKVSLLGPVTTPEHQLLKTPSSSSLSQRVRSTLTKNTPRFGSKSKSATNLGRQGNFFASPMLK
Briefly: MgcRacGAP GTPase-activating activity inhibitors, confirmation, biochemical, ADP Hunter fluorescence, primary and confirmatory (AID 624330). In kind it is functional.

Experiment [2] deals with T2, Ubiquitin-conjugating enzyme E2 N (Homo sapiens, UniProt P61088).
T2 sequence (P61088 whole entry): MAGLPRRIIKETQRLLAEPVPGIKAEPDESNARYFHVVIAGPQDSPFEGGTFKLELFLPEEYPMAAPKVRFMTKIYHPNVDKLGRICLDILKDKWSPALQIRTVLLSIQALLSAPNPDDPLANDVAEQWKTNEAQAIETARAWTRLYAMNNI
The format is functional.

In experiment [3] the target is T3, Corticotropin-releasing factor receptor 2/Corticotropin-releasing factor-binding protein (Homo sapiens, UniProt P24387+Q13324).
T3 sequence (Q13324 whole entry): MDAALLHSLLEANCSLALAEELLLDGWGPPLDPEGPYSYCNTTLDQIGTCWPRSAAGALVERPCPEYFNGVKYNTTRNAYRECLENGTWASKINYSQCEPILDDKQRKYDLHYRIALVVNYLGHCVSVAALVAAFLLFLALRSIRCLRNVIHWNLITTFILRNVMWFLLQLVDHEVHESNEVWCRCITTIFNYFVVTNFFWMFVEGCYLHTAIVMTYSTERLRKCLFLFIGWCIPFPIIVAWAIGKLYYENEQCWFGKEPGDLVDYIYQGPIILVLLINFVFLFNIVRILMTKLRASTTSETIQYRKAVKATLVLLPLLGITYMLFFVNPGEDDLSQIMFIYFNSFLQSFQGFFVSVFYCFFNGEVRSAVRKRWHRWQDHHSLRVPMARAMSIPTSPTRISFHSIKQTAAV
T3 sequence (P24387 whole entry): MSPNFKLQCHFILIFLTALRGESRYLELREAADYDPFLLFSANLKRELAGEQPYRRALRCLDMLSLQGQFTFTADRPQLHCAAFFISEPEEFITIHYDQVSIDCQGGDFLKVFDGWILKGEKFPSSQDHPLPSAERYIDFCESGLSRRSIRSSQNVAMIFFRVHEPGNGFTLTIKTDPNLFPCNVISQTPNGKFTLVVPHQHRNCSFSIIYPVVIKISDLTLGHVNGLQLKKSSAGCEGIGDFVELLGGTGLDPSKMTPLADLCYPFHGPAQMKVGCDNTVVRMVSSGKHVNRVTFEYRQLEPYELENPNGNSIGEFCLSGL
The experiment in a line: Dose Response confirmation of uHTS hits for small molecule antagonists of the CRF-binding protein and CRF-R2 receptor complex. To be noted: read-out: IC50_Mean. In kind it is functional.

For experiment [4], the target named is T3, Corticotropin-releasing factor receptor 2/Corticotropin-releasing factor-binding protein. Briefly: activators of CRF receptor 2 with binding protein – uHTS hits, confirmation (AID 602473). The format is functional. To be noted: read-out: EC50_Mean.
Experiment [5] addresses T4, Carboxy-terminal domain RNA polymerase II polypeptide A small phosphatase 1 (Homo sapiens, UniProt Q9GZU7).
T4 sequence (Q9GZU7 whole entry): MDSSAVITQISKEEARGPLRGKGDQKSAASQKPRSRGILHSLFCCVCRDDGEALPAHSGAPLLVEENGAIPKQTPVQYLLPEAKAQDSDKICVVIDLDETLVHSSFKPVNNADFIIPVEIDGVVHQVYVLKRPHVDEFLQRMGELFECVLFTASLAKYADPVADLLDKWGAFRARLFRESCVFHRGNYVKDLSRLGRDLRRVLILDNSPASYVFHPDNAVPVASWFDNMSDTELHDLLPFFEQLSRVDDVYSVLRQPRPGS
Briefly: inhibitors of CTDSP1, concentration-response testing, biochemical assay, absorbance-based, actives from ultra-high-throughput screening (AID 540297). In kind it is functional.

The target in another experiment is Nonstructural protein 1 (Influenza A virus, UniProt Q194T2). In kind it is functional, Influenza A virus (A/California/07/2009(H1N1)).
Experiment [6] in a line: NIH-3T3 fibroblast cytotoxicity, dose response, cytotoxicity control, cell-based, fluorescence, Alamar Blue, secondary assay (AID 2327).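 Note: NIH-3T3 mouse fibroblasts cultured with fluconazole at 8 µg/mL.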 In kind it is functional. (In general: Alamar Blue is a resazurin reagent that responds to reducing activity.)
Experiment [7] deals with Streptococcus sp. 'group A'. Briefly: growth inhibition of control SK(-) GAS strain, dose response, counter-screen for streptokinase expression inhibitor project, luminescence, kanamycin, BacTiterGlo, confirmation (AID 1900). The format is functional, organism-based.
The next experiment deals with Streptococcus. Briefly: Group A Streptococcus viability loss, dose response, counter-screen for streptokinase expression inhibitor project, luminescence, BacTiterGlo (AID 1915).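 Note: potency for reduction of bacterial viability or growth.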 The format is functional, organism-based. Background: A counterscreen serves to expose hits that act by an unwanted route or on another target.
A short description of experiment [8]: C. albicans growth with fluconazole, confirmation, fluorescence, retest (AID 2467). The format is functional, cell-based.
Another experiment concerns the target T5, Streptokinase A (Streptococcus pyogenes serotype M1, UniProt P10520).
T5 sequence (P10520 whole entry): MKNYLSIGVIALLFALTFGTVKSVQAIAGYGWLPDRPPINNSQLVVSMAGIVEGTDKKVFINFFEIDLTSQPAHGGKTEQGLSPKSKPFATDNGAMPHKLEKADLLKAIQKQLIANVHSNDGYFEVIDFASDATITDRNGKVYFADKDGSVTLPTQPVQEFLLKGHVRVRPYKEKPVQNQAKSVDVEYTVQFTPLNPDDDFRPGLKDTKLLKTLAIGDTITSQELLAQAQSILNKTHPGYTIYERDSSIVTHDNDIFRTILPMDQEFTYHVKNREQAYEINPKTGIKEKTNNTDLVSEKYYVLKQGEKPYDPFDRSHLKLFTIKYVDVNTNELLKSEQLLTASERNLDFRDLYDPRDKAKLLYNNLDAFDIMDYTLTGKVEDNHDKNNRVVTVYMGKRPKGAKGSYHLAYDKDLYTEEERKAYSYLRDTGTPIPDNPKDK
Briefly: S. pyogenes streptokinase expression inhibitors, potency, dose response, plasminogen activation absorbance, OD405 (AID 1914).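 Note: secreted streptokinase activity via plasminogen activation per viability signal from cell pellet.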 In kind it is functional, Streptococcus pyogenes M1 GAS.

Activity calls are given as the source filed them. Some results are limits rather than exact numbers.

Chain of Nonstructural protein 1 (Q194T2 whole entry): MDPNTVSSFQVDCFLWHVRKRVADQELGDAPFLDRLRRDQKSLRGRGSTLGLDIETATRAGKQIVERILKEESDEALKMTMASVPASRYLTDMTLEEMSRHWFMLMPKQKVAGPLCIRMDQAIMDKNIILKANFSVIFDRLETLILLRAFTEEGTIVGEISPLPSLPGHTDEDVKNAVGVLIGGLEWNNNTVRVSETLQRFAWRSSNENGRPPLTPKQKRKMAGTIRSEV

With `CCOc1ccc(N)cc1OC`, in [1], the IC50 was 42.9 µM (active). As to `CCCCCc1cc(=O)oc2c(C(CCN3CCCC3)c3cc(OC)c(OC)c(OC)c3)c(OC)cc(OC)c12` (stereo not drawn), the IC50 in [2] is > 20 µM (inactive). In the case of `COc1ccc(F)cc1S(=O)(=O)NCC(=O)NCc1cc(=O)n(C)c(=O)n1C`, the IC50 in experiment [3] was > 47.1 µM (inactive). Besides, the EC50 in [4] was > 53 µM (inactive). With `O=C(COc1cccc2c1CCN(Cc1ccc(Br)cc1)C2=O)NCc1ccco1`, the IC50 in experiment [3] was > 47.1 µM (inactive). Further, the EC50 in experiment [4] is > 53 µM (inactive). With `COC(=O)C1=C(C)N(Cc2ccccc2)C(NCc2cc(OC)c(OC)c(OC)c2)=N[C@H]1c1ccc(Br)cc1`, the IC50 in experiment [2] was > 20 µM (inactive). On the same count and under the same terms, under `C#CCOCCOCCOCCNc1nc(N2CCOCC2)nc(N2CCN(C(=O)CCCCCCCCCCNC(=O)[C@H](CO)n3cc(CCCCCN)nn3)CC2)n1` stands > 20 µM (inactive). As to `COc1cc(-c2nc3cnccn3c2Nc2ccc(C)cc2)ccc1O`, the IC50 in experiment [1] is 29.3 µM (active). Consider `O=C1NC2(CCCCCC2)N=C1c1ccc(Br)cc1`, for which the IC50 in [2] was > 20 µM (inactive).

As for `N#CCSc1nc2sccc2c(=O)n1-c1ccccc1`, in [3], the IC50 was > 47.1 µM (inactive). The EC50 in experiment [4] was > 53 µM (inactive).

Take `CCCC(=O)NC(=S)Nc1cccc2c(O)cccc12`: the IC50 in experiment [1] is 47.7 µM (active).

As for `Cc1cc(C(=O)COc2ccc3ccc(=O)oc3c2)c(C)n1Cc1cccs1`, the IC50 in experiment [5] was 6.2 µM (active).

Consider `CCOC(=O)C1=C(c2ccccc2)O/C(=C(\C(=O)OC)C(F)(F)F)S1`, for which the IC50 in experiment [2] was > 20 µM (inactive). Take `Cc1c(CC(=O)O)c(=O)oc2c(C)c3occ(-c4ccc(Br)cc4)c3cc12`: the IC50 in experiment [5] was 7.37 µM (active). For the molecule `O=C(COc1ccccc1)N1CCN(C2CCCC2)CC1`, the IC50 in [1] is 127 µM (active).

`C=CCOc1ccc(/C=C\c2nc(O)c([N+](=O)[O-])c(O)n2)cc1OC`: in experiment [5], the IC50 was 13.7 µM (active). On to `CCOc1cccc(/C=N/NC(=S)NCCN2CCOCC2)c1O`, for which, at Nonstructural protein 1, the IC50 was 16.5 µM (active). The same measure, in the same setting: under `c1ccc(-c2ccc(SCc3cccnc3)nn2)nc1` stands 5.07 µM (active); under `COc1cc(OC)c2c(c1C(CCN1CCOCC1)c1ccc(N(C)C)cc1)OC(=O)CC2c1ccc(N(C)C)cc1` (stereo not drawn), 14.5 µM (active). The same measure, in the same setting: under `COc1ccc(C(CCNCc2ccc(N(C)C)cc2)C(C)C)cc1` (stereo not drawn) stands 39.1 µM (active).

With `COC(=O)c1cc(NCc2ccccc2F)ccc1N1CCOCC1`, the IC50 in experiment [1] is 168 µM (active). On the same count and under the same terms, the figure for `OCCN1CCN(Cc2ccc3ccccc3c2)CC1` is 95.6 µM (active). As to `Cc1ccccc1CN1CCC(CNC(=O)C2CCCN(c3ncnc4c3nc3n4CCCCC3)C2)CC1` (stereo not drawn), the IC50 in [2] was > 20 µM (inactive). Turning to `Cc1cc(C)nc(SCc2nnc(SCc3ccc([N+](=O)[O-])cc3)n2Cc2ccco2)n1`, the IC50 in [3] is > 47.1 µM (inactive). The EC50 in [4] is > 53 µM (inactive). Consider `Cc1ncc(CO)c(/C=N/NC(=S)Nc2ccc(Cl)c(Cl)c2)c1O`, for which the EC50 is 45.4 µM (inconclusive) in experiment [6]; 4.1 µM (active) in experiment [7]; 91.4 µM (active) in the experiment with Streptococcus; > 38 µM (not active) in experiment [8]; > 150 µM (not active) on Streptokinase A. Further, the IC50 in [2] was > 20 µM (inactive).

The values are drawn from ChEMBL document CHEMBL1201862, “PubChem BioAssay data set” (2004).
